One assay concerns A101D (melenoma). In words: MS detection of ZMP in cultured cells. The assay is classed as cell-based. As to conditions: Homo sapiens, low folate RPMI media, 16 hours. The method, then: (§1) Cells lines were acquired from cell banks, see supplemental material, grown using the cell banks recommended culture conditions (Supplemental Table 3). In some experiments noted “low folate” the cells were washed and grown in folate free RPMI-1640 media (Gibco #27016-021) supplemented with 5 ml 1 M Hepes, 5 ml 100 mM Na pyruvate, 2.5 mg/ml glucose and 10% defined FBS (Hyclone #SH30070) per 500 mL media for 5–7 days to deplete intracellular folate levels prior to the start of the experiment. Where noted, cells were maintained in complete “high folate” RPMI-1640 media (ATCC #30-2001) with 10% defined FBS to contrast with the low folate conditions.
(§2) ZMP was detected in cultured cells via mass spec analysis. Cells were plated in 96-well plates at 25,000 cells per well in 100 µL with either high or low folate RPMI media and incubated overnight at 37 °C with 5% CO2. Cells were treated with inhibitor compounds for 16 hours, 0.5% DMSO final concentration. Growth media was decanted and cells were lysed for 10 min at room temperature with 50 µL per well of 1x Sure Fire Lysis buffer (Perkin Elmer, SureFire kit component). Aliquots (40 µL) of standard or sample were combined in a deep 96-well plate with 160 µL of internal standard solution containing ^13C5-ZMP (custom synthesis) and ^13C5-AICAr (custom synthesis) at 100 ng/mL in 40 mM ammonium acetate, pH 4. 400 µL of dichloromethane was added to each sample. Samples were sealed, vortexed for 5 minutes, and placed in the refrigerator for at least 30 minutes. The samples were centrifuged at 4 °C for 10 minutes at 16,600 g. 75 µL of the aqueous layer were transferred to a clean 96-well plate and seal prior to analysis.
(§3) The LC-MS method utilizes a Shimadzu Prominence 20 A HPLC system connected to an AB Sciex 5500™ or an AB Sciex 6500™ triple quadrupole mass spectrometer. Extracted samples were separated using a Thermo Hypercarb™ Javelin guard column (2.1 × 20 mm, 5 µm) with an injection volume of 15 µL and a flow rate of 1 mL/minute.
(§4) ZMP, AICAr and dUMP were detected using positive ion TurboIonSpray® multiple reaction monitoring mode and the data were processed with AB Sciex MultiQuant™. Back-calculated ZMP concentrations were fit to a four-parameter logistic equation using ACTIVITYBASE 4.0 to determine EC50 values relative to the maximum observed metabolite levels.

A further assay deals with A549 (lung). In words: MS detection of ZMP in cultured cells. Type of assay: cell-based. As to conditions: Homo sapiens, 16 hours. The method, then: as §1, §2, §3, §4
For the next assay, the system named is HCT 116 (colon). In words: MS detection of ZMP in cultured cells. The assay is classed as cell-based. As to conditions: Homo sapiens, 16 hours. As for the experimental part:
as §1, §2, §3, §4

A further assay concerns MIA PaCa-2 (pancreas). In words: MS detection of ZMP in cultured cells. As to conditions: Homo sapiens, 16 hours. Type of assay: cell-based. As for the experimental part:
as §1, §2, §3, §4

For the next assay, the system named is NCI-H1155 (lung). In words: MS detection of ZMP in cultured cells. The assay is classed as cell-based. The following applies: Homo sapiens, 16 hours. As for the experimental part: as §1, §2, §3, §4
A further assay concerns NCI-H1299. In words: MS detection of ZMP in cultured cells. The assay is classed as cell-based. The following applies: Homo sapiens, low folate RPMI media, 16 hours. The method, then:
as §1, §2, §3, §4

In another assay the test system is NCI-H1437 (lung). As to the kind of experiment: MS detection of ZMP in cultured cells. The assay is classed as cell-based. As to conditions: Homo sapiens, 16 hours. The method, then:
as §1, §2, §3, §4

The test system of another assay is NCI-H1993 (lung). As to the kind of experiment: MS detection of ZMP in cultured cells. The following applies: Homo sapiens, low folate RPMI media, 16 hours. Type of assay: cell-based. The method, then:
as §1, §2, §3, §4

The subject of a further assay is SNU-16 (gastric). In words: MS detection of ZMP in cultured cells. The assay is classed as cell-based. The following applies: Homo sapiens, 16 hours. The method, then:
as §1, §2, §3, §4

The subject of the next assay is SW620 (colon). In words: MS detection of ZMP in cultured cells. Type of assay: cell-based. The following applies: Homo sapiens, 16 hours. As for the experimental part: as §1, §2, §3, §4
Assay [1] relates to AMPK T172 phosphorylation in MDA-MB-231met2. As to the kind of experiment: Western analysis after overnight treatment in tissue culture. As to conditions: 0 to 20 μM, RPMI media. Type of assay: cell-based, human. As for the experimental part:
(§5) The levels of total actin, AMPKα and P70S6K are also shown. […] Full images and the croppings used in this figure are shown in Supplemental Figures S4–S13.
(§6) Antibodies were purchased as follows: pAMPK Thr172 (Cell Signaling #2535), p-p70S6 Thr389 (Cell Signaling #9205), total p70S6 (Cell Signaling #2708), total AMPKα (Cell Signaling #2793) and Actin (Sigma #A5441). Frozen tumor samples were lysed with 500 µL ice cold lysis buffer plus Halt protease inhibitor (ThermoFisher #78430) using a Power Gen 125 tissue grinder (Fisher Scientific). Western blots were run as described in the supplemental material.
(§7) Western Blots: Lysis buffer is 0.01 mg/mL Leupeptin, 0.01 mg/mL Trypsin-Chymotrypsin, 0.01 mg/mL TPCK, 0.1 mg/mL Aprotinin, 60 mM β-Gly PO4, 1% Triton-100, 25 mM Tris pH 7.5, 2.5 µM Na2Pyrophosphate, 150 mM NaCl, 0.76 mg/mL TAME, 6.2 mg/mL PNPP, 0.8 mg/mL Benzamidine, 0.2 mg/mL Na3V04, 0.42 mg/mL NaF, 0.5 mg/mL PMSF or PEFA, 1 mM DTT, 15 mM EDTA pH 8.0, 5 mM EGTA pH 8.0, 1 µM Okadaic acid, and 1 µM microcystine. RNA and DNA were degraded by addition of Benzonase (Novagen) with a 30 min incubation on ice. Lysates were cleared by centrifugation at 4 °C for 10 min at 16,000 x g. Protein content was measured using Pierce BCA protein assay kit (Thermo Scientific). Twenty ug of total protein was resolved on a 4-20% Tris HCl Criterion XT precast gel (BioRad) at 100 V for 90 minutes. Transfer electrophoresed proteins to a 0.2 µm nitrocellulose membrane using Trans Blot Turbo System (BioRad). Block membranes for 1 hr at RT in Odyssey blocking buffer (LiCor). Probe overnight 4°C for primary antibodies. Wash blots 3 x 5 min in 20 mL PBS-0.1% Tween-20.

Assay [2] relates to AMPK T172 phosphorylation in NCI-H460. The assay is described as above. As to conditions: 0 to 20 μM, RPMI media. Type of assay: cell-based, human. The method, then:
as §5, §6, §7

Assay [3] concerns P70S6K T389 phosphorylation in MDA-MB-231met2. The assay is described as above. The assay is classed as cell-based, human. As to conditions: 0 to 20 μM, RPMI media. The method, then:
as §5, §6, §7

The test system of assay [4] is P70S6K T389 phosphorylation in NCI-H460. The assay is described as above. Type of assay: cell-based, human. As to conditions: 0 to 20 μM, RPMI media. As for the experimental part:
as §5, §6, §7

Another assay concerns the target T1, CDK7 (Homo sapiens, UniProt P50613).
T1 construct: purchased CEREP Panlabs (Eurofins)
In words: CEREP protein kinase assay. The assay is classed as biochemical.

The mark [5] stands for this setting: RPMI media, read-out: ZMP EC50 Regular folate.
The mark [6] stands for this setting: low folate RPMI media, read-out: ZMP EC50 Low folate.

The structures appear in SMILES notation. Like-named read-outs stand apart in the source and are kept apart here.

T1 sequence (P50613 whole entry): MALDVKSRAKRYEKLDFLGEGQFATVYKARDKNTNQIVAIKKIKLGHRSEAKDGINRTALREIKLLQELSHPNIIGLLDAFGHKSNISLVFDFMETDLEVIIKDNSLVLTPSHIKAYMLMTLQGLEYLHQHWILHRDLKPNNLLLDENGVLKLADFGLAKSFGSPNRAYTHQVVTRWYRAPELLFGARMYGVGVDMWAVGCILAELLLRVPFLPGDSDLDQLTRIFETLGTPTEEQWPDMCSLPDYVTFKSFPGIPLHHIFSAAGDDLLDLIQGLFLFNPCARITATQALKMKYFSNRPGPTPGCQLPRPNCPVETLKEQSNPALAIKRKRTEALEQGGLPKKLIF
T1 sequence (P51946 whole entry partner): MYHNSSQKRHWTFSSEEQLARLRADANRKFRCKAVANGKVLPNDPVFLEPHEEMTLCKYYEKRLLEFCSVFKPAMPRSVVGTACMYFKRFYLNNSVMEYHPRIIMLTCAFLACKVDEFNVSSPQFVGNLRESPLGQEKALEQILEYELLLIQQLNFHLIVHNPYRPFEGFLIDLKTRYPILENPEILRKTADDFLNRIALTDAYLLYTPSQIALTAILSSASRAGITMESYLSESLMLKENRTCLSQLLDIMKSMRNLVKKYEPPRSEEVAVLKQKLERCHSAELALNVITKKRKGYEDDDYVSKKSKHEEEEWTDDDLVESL
T1 sequence (P51948 whole entry partner): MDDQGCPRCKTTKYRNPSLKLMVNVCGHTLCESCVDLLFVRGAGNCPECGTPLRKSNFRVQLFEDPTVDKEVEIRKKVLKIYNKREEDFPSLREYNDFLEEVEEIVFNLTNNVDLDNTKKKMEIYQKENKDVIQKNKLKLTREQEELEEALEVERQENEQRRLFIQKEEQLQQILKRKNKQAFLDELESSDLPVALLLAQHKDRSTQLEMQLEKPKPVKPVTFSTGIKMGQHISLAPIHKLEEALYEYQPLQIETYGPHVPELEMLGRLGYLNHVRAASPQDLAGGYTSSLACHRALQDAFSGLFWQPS

With `O=c1[nH]ccc2cc(F)c(NS(=O)(=O)c3ccc(N4CC[C@@H](O)C4)s3)cc12` [LSN3213128, N-(6-Fluoro-1-oxo-1,2-dihydroisoquinolin-7-yl)-5-[(3R)-3-hydroxypyrrolidin-1-yl]thiophene-2-sulfonamide], the EC50 (commonly the concentration needed to bring the measured effect to its halfway point) in the assay with A101D (melenoma) worked out at 2.3 nM; with A549 (lung) (setting [5]), 3100 nM; in the assay on A549 (lung) (setting [6]), 10 nM; with HCT 116 (colon) (setting [5]), 369 ± 44 nM; with HCT 116 (colon) (setting [6]), 2.7 ± 3.3 nM; in the assay on MIA PaCa-2 (pancreas) (setting [5]), 1700 nM. The concentration giving a half-maximal response (EC50) with MIA PaCa-2 (pancreas) (setting [6]) came to 4.2 nM; with NCI-H1155 (lung) (setting [5]), 380 nM; in the assay on NCI-H1155 (lung) (setting [6]), 2.3 nM; in the assay with NCI-H1299, 4.1 nM; in the assay on NCI-H1437 (lung) (setting [5]), 620 ± 354 nM; in the assay on NCI-H1437 (lung) (setting [6]) it was 4.6 nM. Besides, the EC50 in the assay with NCI-H1993 (lung) is 7.1 nM; with SNU-16 (gastric) (setting [5]), 2500 nM; with SNU-16 (gastric) (setting [6]) it was 2 nM; in the assay on SW620 (colon) (SW-620, RPMI media, read-out: ZMP EC50 Regular folate) it was 600 nM; in the assay on SW620 (colon) (SW-620, low folate RPMI media, read-out: ZMP EC50 Low folate) it was 4.3 ± 0.9 nM. Moreover, the “AMPK T172 phosphorylation” value in assay [1] is listed as “expected increase”. The “phosphorylated AMPK T172” value in assay [2] is recorded as “not increased”. Besides, the “P70S6K T389 phosphorylation” value in [3] was “corresponding decrease”. In [4], the “phosphorylation of P70S6K T389” value is reported as “inhibits the phosphorylation”. At CDK7 (@ 0.2 uM), the inhibition (usually the relative decrease from the control value, in per cent) at 0.2 µM is -17%. Moreover, at CDK7 (@ 2 uM), the inhibition at 2 µM worked out at 2.91%. The inhibition at 20 µM at CDK7 (@ 20 uM) came out at 15%.

These data come from PMC6193938, “Characterization of a novel AICARFT inhibitor which potently elevates ZMP and has anti-tumor activity in murine models” (Scientific Reports, 2018).
